Results from ChEMBL document CHEMBL4732126, “Design, synthesis, and biodistribution studies of new analogues of marine alkaloids: Potent in vitro and in vivo fungicidal agents against Candida spp” (Eur J Med Chem, 2021).
Active and inactive are the calls of the source. The rule behind the calls is not given here.

Assays:
[1] = Toxicity in Swiss mouse assessed as relative lung weight at 10 mg/kg, ip measured after 24 hrs (reference value: 6.35 +/- 0.68 g); assay type: organism-based; conditions: in vivo
Candida albicans [2] = test: Antifungal activity against Candida albicans isolate 7 assessed as reduction in fungal growth incubated for 48 hrs by broth microdilution method; assay type: functional
[3] = Toxicity in Swiss mouse infected with Candida albicans ATCC 10231 assessed as effect on lung at 10 mg/kg, ip administered at 2, 24 and 48 hrs post-infection and measured at 24 hrs after last dose by macroscopic analysis; assay type: organism-based; conditions: in vivo, 72 h
Nakaseomyces glabratus [4] = test: Antifungal activity against Candida glabrata ATCC 2001 assessed as reduction in fungal growth incubated for 48 hrs in presence of ergosterol by broth microdilution method; assay type: functional
Candida albicans [5] = test: Antifungal activity against Candida albicans isolate 1 assessed as reduction in fungal growth incubated for 48 hrs by broth microdilution method; assay type: functional
Nakaseomyces glabratus [6] = test: Antifungal activity against Candida glabrata ATCC 2001 assessed as reduction in fungal growth incubated for 48 hrs by broth microdilution method; assay type: functional
[7] = Toxicity in Swiss mouse assessed as effect on lung at 0.5 to 10 mg/kg, ip measured after 24 hrs by macroscopic analysis; assay type: organism-based; conditions: in vivo, dose 0.5-10 mg/kg
[8] = Toxicity in Swiss mouse assessed as relative liver weight at 1 mg/kg, ip measured after 24 hrs (reference value: 49.42 +/- 7.17 g); assay type: organism-based; conditions: in vivo
Candida albicans [9] = test: Fungicidal activity against Candida albicans isolate 2 assessed as fungal killing incubated for 48 hrs followed by plating on SD agar plate; assay type: functional; conditions: read-out: MFC99.9
Nakaseomyces glabratus [10] = test: Disruption of cell membrane in Candida glabrata ATCC 2001 assessed as increase in intracellular leakage at MIC incubated for 24 hrs by UV spectrophotometric analysis; assay type: cell-based
Candida albicans [11] = test: Antifungal activity against Candida albicans ATCC 18804 assessed as reduction in fungal growth incubated for 48 hrs by broth microdilution method; assay type: functional
[12] = Toxicity in Swiss mouse assessed as relative heart weight at 10 mg/kg, ip measured after 24 hrs (reference value: 4.75 +/- 0.60 g); assay type: organism-based; conditions: in vivo
[13] = Toxicity in Swiss mouse assessed as relative spleen weight at 1 mg/kg, ip measured after 24 hrs (reference value: 4.02 +/- 0.59 g); assay type: organism-based; conditions: in vivo
Candida albicans [14] = test: Fungicidal activity against Candida albicans ATCC 10231 assessed as reduction in fungal load at 7.8 to 15.6 ug/ml incubated for 8 hrs followed by inoculation on SD agar plate for 48 hrs by time-kill assay; assay type: functional, organism-based; conditions: dose 7.8-15.6 µg/ml, time 56.0 hrs
Candida albicans [15] = test: Fungicidal activity against Candida albicans isolate 10 assessed as fungal killing incubated for 48 hrs followed by plating on SD agar plate; assay type: functional; conditions: read-out: MFC99.9
[16] = Toxicity in Swiss mouse assessed as body weight at 10 mg/kg, ip measured after 24 hrs (reference value: 36.25 +/- 0.31 g); assay type: organism-based; conditions: in vivo
[17] = Toxicity in Swiss mouse assessed as relative lung weight at 0.5 mg/kg, ip measured after 24 hrs (reference value: 6.35 +/- 0.68 g); assay type: organism-based; conditions: in vivo
[18] = Toxicity in Swiss mouse infected with Candida albicans ATCC 10231 assessed as effect on kidney at 10 mg/kg, ip administered at 2, 24 and 48 hrs post-infection and measured at 24 hrs after last dose by macroscopic analysis; assay type: organism-based; conditions: in vivo, 72 h
[19] = Toxicity in Swiss mouse assessed as relative liver weight at 20 mg/kg, ip measured after 24 hrs (reference value: 49.42 +/- 7.17 g); assay type: organism-based; conditions: in vivo
[20] = Toxicity in Swiss mouse assessed as effect on spleen at 0.5 to 10 mg/kg, ip measured after 24 hrs by macroscopic analysis; assay type: organism-based; conditions: in vivo, dose 0.5-10 mg/kg
[21] = Toxicity in Swiss mouse assessed as relative liver weight at 0.5 mg/kg, ip measured after 24 hrs (reference value: 49.42 +/- 7.17 g); assay type: organism-based; conditions: in vivo
[22] = Toxicity in Swiss mouse assessed as relative lung weight at 1 mg/kg, ip measured after 24 hrs (reference value: 6.35 +/- 0.68 g); assay type: organism-based; conditions: in vivo
Pichia kudriavzevii [23] = test: Antifungal activity against Candida krusei ATCC 34135 assessed as reduction in fungal growth incubated for 48 hrs by broth microdilution method; assay type: functional
Pichia kudriavzevii [24] = test: Disruption of cell membrane in Candida krusei ATCC 34135 assessed as increase in intracellular leakage at MIC incubated for 24 hrs by UV spectrophotometric analysis; assay type: cell-based
Candida albicans [25] = test: Antifungal activity against Candida albicans isolate 6 assessed as reduction in fungal growth incubated for 48 hrs by broth microdilution method; assay type: functional
[26] = Toxicity in Swiss mouse assessed as body weight at 1 mg/kg, ip measured after 24 hrs (reference value: 36.25 +/- 0.31 g); assay type: organism-based; conditions: in vivo
[27] = Toxicity in Swiss mouse assessed as relative kidney weight at 10 mg/kg, ip measured after 24 hrs (reference value: 14.91 +/- 0.99 g); assay type: organism-based; conditions: in vivo
Candida albicans [28] = test: In vivo antifungal activity in Swiss mouse infected with Candida albicans ATCC 10231 assessed as reduction in fungal load in spleen at 0.5 mg/kg, ip administered at 2, 24 and 48 hrs post-infection and measured per gm of organ at 24 hrs post-last dose (reference value: 2.34); assay type: functional; conditions: time 72 hrs
[29] = Toxicity in Swiss mouse infected with Candida albicans ATCC 10231 assessed as reduction in body weight at 10 mg/kg, ip administered at 2, 24 and 48 hrs post-infection and measured at 24 hrs after last dose; assay type: organism-based; conditions: in vivo, 72 h
Candida albicans [30] = test: In vivo antifungal activity in Swiss mouse infected with Candida albicans ATCC 10231 assessed as reduction in fungal load in liver at 0.5 mg/kg, ip administered at 2, 24 and 48 hrs post-infection and measured per gm of organ at 24 hrs post-last dose (reference value: 1.80); assay type: functional; conditions: time 72 hrs
Candida albicans [31] = test: Antibiofilm activity against Candida albicans ATCC 10231 assessed as reduction in mature biofilm incubated for 48 hrs by crystal violet staining based spectrophotometric analysis relative to control; assay type: functional, organism-based; conditions: dose 0.48-125 µg/ml
[32] = Toxicity in Swiss mouse infected with Candida albicans ATCC 10231 assessed as effect on heart at 10 mg/kg, ip administered at 2, 24 and 48 hrs post-infection and measured at 24 hrs after last dose by macroscopic analysis; assay type: organism-based; conditions: in vivo, 72 h
[33] = Toxicity in Swiss mouse assessed as body weight at 3 mg/kg, ip measured after 24 hrs (reference value: 36.25 +/- 0.31 g); assay type: organism-based; conditions: in vivo
[34] = Toxicity in Swiss mouse assessed as effect on kidney at 0.5 to 10 mg/kg, ip measured after 24 hrs by macroscopic analysis; assay type: organism-based; conditions: in vivo, dose 0.5-10 mg/kg
[35] = Toxicity in Swiss mouse assessed as relative liver weight at 10 mg/kg, ip measured after 24 hrs (reference value: 49.42 +/- 7.17 g); assay type: organism-based; conditions: in vivo

In the case of `[Cl-].[N-]=[N+]=NCCCCCCCCCCCCOCCCc1ccc[n+](Cc2ccccc2)c1`, the Activity [1] is reported as 6.01 g, the MIC (Candida albicans [2]) is reported as 1.95 µg/mL and the Activity [3] is reported as “Non-Toxic”. For the same molecule, the MIC (Nakaseomyces glabratus [4]) was 7.8 µg/mL, the MIC (Candida albicans [5]) was 7.8 µg/mL and the MIC (Nakaseomyces glabratus [6]) was 7.8 µg/mL. For the same molecule, the Activity [7] was “Non-Toxic”, the Activity [8] was 44.68 g and the MFC (Candida albicans [9]) was 7.8 µg/mL. For the same molecule, the Activity (Nakaseomyces glabratus [10]) was “Active”, the MIC (Candida albicans [11]) was 7.8 µg/mL and the Activity [12] was 4.95 g. For the same molecule, the Activity [13] was 4.29 g, the Activity (Candida albicans [14]) was “Active” and the MFC (Candida albicans [15]) was 31.2 µg/mL. The Activity [16] was 31.37 g, the Activity [17] was 5.57 g and the Activity [18] was “Non-Toxic”. The Activity [19] was 45 g, the Activity [20] was “Non-Toxic” and the Activity [21] was 43.25 g. The Activity [22] was 5.33 g, the MIC (Pichia kudriavzevii [23]) was 3.9 µg/mL and the Activity (Pichia kudriavzevii [24]) was “Active”. For the same molecule, the MIC (Candida albicans [25]) was 15.6 µg/mL, the Activity [26] was 37.87 g and the Activity [27] was 15.52 g. The Activity (Candida albicans [28]) was 0 log10CFU, the Activity [29] was “Toxic” and the Activity (Candida albicans [30]) was 0 log10CFU. The Activity (Candida albicans [31]) was “Dose-dependent effect”, the Activity [32] was “Non-Toxic” and the Activity [33] was 38.87 g. The Activity [34] was “Non-Toxic” and the Activity [35] was 43.58 g.
